What all share (type): in vivo
Assay [1] relates to pig model of RVO (branch retinal vein occlusion). The assay is described as follows: Spontaneous retinal vein reperfusion 24 h after RVO in the pig. The settings on record: 21.2 μg/eye intra-vitreally immediately following RVO. As for the experimental part: (§1) Mixed breed (Large White×Landrace×Pietrain) female pigs weighing 50 to 60 kg aged of 5 to 6 months were used. Following intramuscular injection of ketamine (10 mg/kg), azaperone (2 mg/kg) and atropine (0.02 mg/kg), anesthesia was induced by intravenous sodium thiopental (10 mg/kg). After tracheal intubation, anesthesia was maintained with isoflurane (1-2% in 100% O2) using a Hallowell ventilator (15 to 20 rpm; pressure at 20 cmH2O).
(§2) Pupil was dilated by tropicamide. Conjunctival disinsertion was followed by a 0.9 mm sclerotomy, 3 mm from the limbus. The fundus was observed using a plano-concave lens and the axial light of the operating microscope (Microscope OPMI 6-C, Zeiss, Germany). Branch retinal vein occlusion (RVO) of the major temporal vein was performed by transvitreal cauterization using a 300 micron probe (GN 300, Aesculap, Tuttlingen, Germany). Completion of the occlusion was assessed by the complete arrest of blood flow upstream of the occlusion site. Both eyes were submitted to RVO.
Animals that were submitted to RVO were randomised to receive either the vehicle or the drug (10 to 14 pigs/group). Accordingly, 100 μl of SEQ ID No 23 in solution (dosage of 21.2 μg/eye) or of the corresponding vehicle (saline) was injected intra-vitreally, immediately following RVO.

For assay [2] the test system is unchanged. The assay is described as follows: Evans Blue dye retinal concentration (extra-cellular retinal oedema) in a pig model of RVO. Particulars: 21.2 μg/eye intra-vitreally immediately following RVO, 24 h following RVO, p<0.01. The protocol:
The amount of Evans Blue dye concentration into the retinal tissue reflects plasma extravasation and the extent of oedema. Control values represent retina Evans Blue Dye content of 2 eyes that were left non-operated and non-treated whilst sham-operated eyes (n=4) were submitted to the surgical procedure but without occlusion (See Methods). Values are mean±s.e.mean. Comparison of values was performed by a one-way ANOVA following by a student t-test. **, p<0.01
as §1
Pupil was dilated by tropicamide. […] Completion of the occlusion was assessed by the complete arrest of blood flow upstream of the occlusion site. […]
After OCT measurement, each animal received Evans Blue dye at 45 mg/kg i.v. and venous blood samples (approximately 1 ml) were obtained at 15 minutes intervals for 2 hours. […] Evans Blue dye concentration in plasma samples and in retina tissue was measured by spectrophotometry at both 620 nm and 740 nm.

The test system is the same in assay [3]. The assay is described as follows: OCT-measured maximal retinal thickness in a pig model of RVO. The settings on record: 21.2 μg/eye intra-vitreally immediately following RVO, 24 h after RVO. The protocol: Maximal retina thickness was determined 24 h after RVO from Optical Coherence Tomography images. Values are mean±s.e.mean. Comparison of values was performed by a one-way ANOVA following by a student t-test.
as §1, §2
Animals that were submitted to RVO were randomised to receive either the vehicle or the drug (10 to 14 pigs/group). […]

Where no end group is shown, it is not given here.

Turning to “EAMHSFCAFKADDGPCRAAHPRWFFNIFTRQCEEFIYGGCEGNQNRFESLEECKKMCTRD (cysteine pairing not given here) [SEQ ID No 23]”, in assay [1], the “% of reperfused retinal vein at 24 h (spontaneous reperfusion, treated eyes)” value is listed as 30%. In assay [1] (13 pigs/26 eyes), the “Number of reperfused retinal vein at 24 h” value was 8. For the same sequence, in assay [2], the “Reduction of Evans Blue dye retinal concentration (extent of extra-cellular oedema)” value worked out at 47%. Moreover, the “Increase of maximal retinal thickness as measured by OCT” value in assay [3] is listed as “did not modify the increase of maximal retinal thickness”.
